In ChEMBL document CHEMBL1128760, “CCKB selective receptor ligands: novel 1,3,5-trisubstituted benzazepin-2-ones” (Bioorg Med Chem Lett, 1995) one finds IC50 data, which are given here for two compounds.

In the experiment the target is T1, Cholecystokinin receptor type A (Rattus norvegicus, UniProt P30551).
T1 sequence (P30551 whole entry): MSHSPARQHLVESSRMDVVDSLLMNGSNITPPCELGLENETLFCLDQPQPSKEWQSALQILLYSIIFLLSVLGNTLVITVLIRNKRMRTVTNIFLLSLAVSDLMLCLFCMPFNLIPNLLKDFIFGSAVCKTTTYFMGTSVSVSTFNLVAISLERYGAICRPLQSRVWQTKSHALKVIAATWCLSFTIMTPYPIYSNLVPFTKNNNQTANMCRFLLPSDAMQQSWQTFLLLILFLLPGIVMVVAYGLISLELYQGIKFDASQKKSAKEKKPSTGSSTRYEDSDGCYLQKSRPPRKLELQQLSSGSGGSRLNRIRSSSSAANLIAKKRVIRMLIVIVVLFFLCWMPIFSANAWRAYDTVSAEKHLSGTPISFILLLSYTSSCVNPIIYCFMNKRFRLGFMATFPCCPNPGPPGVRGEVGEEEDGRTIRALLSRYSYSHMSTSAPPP
Kind of experiment: Inhibitory activity against Cholecystokinin type A receptor in rat pancreas using [125 I ]- CCK-8 as radioligand.

SMILES strings stand for the structures.

The compound `Cc1cccc(NC(=O)N[C@@H]2C[C@@H](N3CCCCCC3)c3ccccc3N(C)C2=O)c1` came in with an IC50 of 646 nM. This lies in the sub-micromolar range.

Compound `Cc1cccc(NC(=O)N[C@@H]2C[C@H](N3CCCCCC3)c3ccccc3N(C)C2=O)c1` gave an IC50 of 121 nM.

The term IC50 denotes the midpoint of a concentration-inhibition curve. Higher therefore signals lower potency.
